Experiments:
Assay type in all cases: cell-based
PARS [1] = target: T1, PARS (Mus musculus, UniProt P11103); assay: High glucose induced PARS activation in murine lung microvascular endothelial cells; set-up: endogenous in cells; host or cells: primary lung microvascular endothelial cells from wild-type mice; conditions: 30 mM glucose, 6 hours; PJ34 100 nM-3 μM, MnTBAP 100 μM, carboxy-PTIO 300 μM, L-NMA 3 mM, L-NAME 3 mM
Experimental: In brief, lung microvascular endothelial cells were isolated from wild-type (+/+) and PARS knockout (−/−) mice. Cells were maintained in F12/DMEM (1:1) medium supplemented with endothelial cell growth supplement (100 μg/l heparin and 10% fetal calf serum).
PARS activation was measured in endothelial cells seeded in 6 well tissue culture plates pre-coated with endothelial cell attachment factor (Sigma). Medium was replaced by regular- (see above) or FCS-free HUVEC medium containing 5 mM D-glucose 12 h before the experiment. […] After 10 min, cells were scraped, transferred into Eppendorf tubes and the reaction was stopped by trichloroacetic acid (TCA). Pellets were washed three times in 5% TCA and then solubilized in 500 μl 2% SDS/0.1 N NaOH at 37° C. Contents of the tubes were added to 7 ml ScintiSafe Plus scintillation liquid and radioactivity was measured in a liquid scintillation counter (Wallac, Gaithersburg, Md.). Activity was normalized for protein content.
Target sequence in this assay (P11103 whole entry): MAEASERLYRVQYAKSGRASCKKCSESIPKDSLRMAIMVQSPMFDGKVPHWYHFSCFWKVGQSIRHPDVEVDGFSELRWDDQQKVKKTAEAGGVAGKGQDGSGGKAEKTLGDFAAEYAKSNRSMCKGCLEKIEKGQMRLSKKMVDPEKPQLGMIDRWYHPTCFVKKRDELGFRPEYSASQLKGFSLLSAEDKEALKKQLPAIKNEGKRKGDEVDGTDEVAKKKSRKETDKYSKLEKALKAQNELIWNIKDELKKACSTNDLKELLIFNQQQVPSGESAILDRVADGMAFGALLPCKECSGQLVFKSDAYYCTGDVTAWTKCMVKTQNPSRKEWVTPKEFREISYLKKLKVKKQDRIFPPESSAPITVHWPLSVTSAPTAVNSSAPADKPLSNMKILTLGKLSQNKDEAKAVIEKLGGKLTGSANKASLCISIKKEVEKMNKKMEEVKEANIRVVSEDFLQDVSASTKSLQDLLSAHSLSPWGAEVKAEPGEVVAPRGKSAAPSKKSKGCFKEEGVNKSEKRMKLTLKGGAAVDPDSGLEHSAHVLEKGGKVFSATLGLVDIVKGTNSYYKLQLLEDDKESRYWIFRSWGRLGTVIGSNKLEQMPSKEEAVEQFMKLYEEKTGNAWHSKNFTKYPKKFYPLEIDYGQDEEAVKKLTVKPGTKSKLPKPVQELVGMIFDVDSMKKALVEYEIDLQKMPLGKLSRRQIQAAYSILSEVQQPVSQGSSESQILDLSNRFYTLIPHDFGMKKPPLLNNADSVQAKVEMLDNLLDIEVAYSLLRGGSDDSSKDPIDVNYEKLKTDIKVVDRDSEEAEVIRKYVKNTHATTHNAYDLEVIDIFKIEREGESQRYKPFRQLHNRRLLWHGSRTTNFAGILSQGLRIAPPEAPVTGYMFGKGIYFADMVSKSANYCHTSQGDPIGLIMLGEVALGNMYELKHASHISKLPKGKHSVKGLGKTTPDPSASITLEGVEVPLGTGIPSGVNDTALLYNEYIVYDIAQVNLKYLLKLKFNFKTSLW

TNF-α = assay: LPS-stimulated J774 macrophages: TNF-α production; conditions: for production of the pro-inflammatory cytokine TNF-α (in words): J774 macrophages exposed to LPS; for EC50: Mus musculus, J774, LPS 10 μg/ml, 30 min pretreatment 0.1 to 30 μM, measured at 24 h, mean±SEM n=3-6, read-out: Inhibition of TNF-α (J774)
Text: (§1) In in vitro studies, J774 macrophages were exposed to bacterial lipopolysaccharide (LPS), to induce pro-inflammatory mediator production and cytotoxicity. […] This assay (the LPS-stimulated macrophage) represents an in vitro model of an inflammatory situation. Agents that block inflammatory mediator production in this assay are expected to have anti-inflammatory or immunosuppressive effects in inflammatory or immune diseases.
(§2) The half-maximal inhibitory effect (in μM) of various PJ compounds was assessed under a variety of conditions in immunostimulated J774 macrophages and in peroxynitrite-stimulated thymocytes. Macrophages or thymocytes were first treated with a chosen PJ compound for 30 min at a concentration ranging from 0.1 to 30 μM. The cells were then immunostimulated with LPS (10 μg/ml) or treated with peroxynitrite (30 μM). MIP production in the macrophages was measured at 3 h, TNF and nitric oxide were measured at 24 h, cell viability in the macrophages were measured at 24 h. PARS activation and cell death in thymocytes were measured at 6 h. Measurements of mediator production, PARS activation and cell death were essentially as described in Németh, et al., Eur J Pharmacol 339:215-221, 1997 and Virág and Szabó, Br J Pharmacol, 126: 769-777, 1999. Results in Table 2 are shown as EC50 values (half maximal inhibition of mediator production or restoration of cell viability; in μM): [mean±SEM of n=3-6 determinations].

MIP-1α = assay: LPS-stimulated J774 macrophages: MIP-1α production; conditions: for production of the chemokine MIP-1α (in words): J774 macrophages exposed to LPS; for EC50: Mus musculus, J774, LPS 10 μg/ml, 30 min pretreatment 0.1 to 30 μM, measured at 3 h, mean±SEM n=3-6, read-out: Inhibition of MIP-1α (J774)
Text: as §1, §2

MIP-2 = assay: LPS-stimulated J774 macrophages: MIP-2 production; conditions: for production of the chemokine MIP-2 (in words): J774 macrophages exposed to LPS; for EC50: Mus musculus, J774, LPS 10 μg/ml, 30 min pretreatment 0.1 to 30 μM, measured at 3 h, mean±SEM n=3-6, read-out: Inhibition of MIP-2 (J774)
Text: as §1, §2

nitric oxide (nitrite) = assay: LPS-stimulated J774 macrophages: nitric oxide production measured as nitrite; conditions: for production of nitric oxide, measured as nitrite (in words): J774 macrophages exposed to LPS; for EC50: Mus musculus, J774, read-out: Inhibition of Nitrite (J774)
Text: as §1, §2

J774 macrophages = assay: LPS-stimulated J774 macrophages: cell viability; conditions: for viability of the cells suppressed by LPS exposure (in words): J774 macrophages exposed to LPS; for EC50: Mus musculus, J774, LPS 10 μg/ml, 30 min pretreatment 0.1 to 30 μM, measured at 24 h, mean±SEM n=3-6, read-out: Enhancement of cell Viability (J774)
Text: as §1, §2

PARS [2] = target: T1, PARS; assay: Peroxynitrite-stimulated thymocytes: PARS activation; conditions: isolated thymocytes exposed to peroxynitrite or hydrogen peroxide
Experimental: The half-maximal inhibitory effect (in μM) of various PJ compounds was assessed under a variety of conditions in immunostimulated J774 macrophages and in peroxynitrite-stimulated thymocytes. Macrophages or thymocytes were first treated with a chosen PJ compound for 30 min at a concentration ranging from 0.1 to 30 μM. The cells were then immunostimulated with LPS (10 μg/ml) or treated with peroxynitrite (30 μM). MIP production in the macrophages was measured at 3 h, TNF and nitric oxide were measured at 24 h, cell viability in the macrophages were measured at 24 h. PARS activation and cell death in thymocytes were measured at 6 h.
Target sequence in this assay (P11103 2-1013): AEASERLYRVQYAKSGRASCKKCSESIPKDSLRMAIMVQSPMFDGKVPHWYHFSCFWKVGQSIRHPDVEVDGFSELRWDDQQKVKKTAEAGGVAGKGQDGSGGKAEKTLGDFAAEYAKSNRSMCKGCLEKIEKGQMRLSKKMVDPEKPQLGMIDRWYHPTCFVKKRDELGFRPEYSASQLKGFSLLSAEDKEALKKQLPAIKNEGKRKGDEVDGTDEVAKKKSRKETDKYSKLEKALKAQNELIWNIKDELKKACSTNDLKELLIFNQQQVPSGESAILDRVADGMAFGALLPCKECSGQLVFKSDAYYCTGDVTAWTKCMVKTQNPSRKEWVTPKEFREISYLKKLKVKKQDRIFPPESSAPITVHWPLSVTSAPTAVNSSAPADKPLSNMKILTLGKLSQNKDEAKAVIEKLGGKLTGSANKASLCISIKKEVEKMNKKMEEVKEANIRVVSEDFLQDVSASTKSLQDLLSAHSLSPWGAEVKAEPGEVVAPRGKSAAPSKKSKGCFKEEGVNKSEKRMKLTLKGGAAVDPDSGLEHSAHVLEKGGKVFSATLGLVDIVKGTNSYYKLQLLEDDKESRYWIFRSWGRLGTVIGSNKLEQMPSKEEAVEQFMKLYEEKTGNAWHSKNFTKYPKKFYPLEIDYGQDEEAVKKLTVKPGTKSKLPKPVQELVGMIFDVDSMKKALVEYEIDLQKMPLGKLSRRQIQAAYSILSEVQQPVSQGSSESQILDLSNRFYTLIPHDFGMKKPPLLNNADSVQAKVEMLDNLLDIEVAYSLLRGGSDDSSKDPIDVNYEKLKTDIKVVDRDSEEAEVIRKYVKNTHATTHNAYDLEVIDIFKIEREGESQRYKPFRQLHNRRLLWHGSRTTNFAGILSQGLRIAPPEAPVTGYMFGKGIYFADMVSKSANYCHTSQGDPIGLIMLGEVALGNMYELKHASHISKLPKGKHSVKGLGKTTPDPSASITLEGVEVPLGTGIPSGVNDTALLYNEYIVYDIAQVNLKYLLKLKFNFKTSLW

thymocytes = assay: Peroxynitrite-stimulated thymocytes: cell viability; conditions: for EC50: Thymocyte, peroxynitrite 30 μM, 30 min pretreatment 0.1 to 30 μM, measured at 6 h, mean±SEM n=3-6, read-out: Enhancement of cell viability (thymocyte); for oxidant-induced suppression of the viability of the cells (in words): isolated thymocytes exposed to peroxynitrite or hydrogen peroxide
Experimental: as §2

[3] = LPS 10 μg/ml, 30 min pretreatment 0.1 to 30 μM, measured at 24 h, mean±SEM n=3-6

| EC50 (TNF-α) [µM] | EC50 (MIP-1α) [µM] | EC50 (MIP-2) [µM] | EC50 (nitric oxide (nitrite); [3]) [µM] | activation of PARS (in words) (PARS [2]) | SMILES | high glucose induced PARP/PARS activation (PARS [1]) | production of the pro-inflammatory cytokine TNF-α (in words) (TNF-α) | production of the chemokine MIP-1α (in words) (MIP-1α) | production of the chemokine MIP-2 (in words) (MIP-2) | production of nitric oxide, measured as nitrite (in words) (nitric oxide (nitrite)) | viability of the cells suppressed by LPS exposure (in words) (J774 macrophages) | EC50 (J774 macrophages) [µM] | EC50 (thymocytes) [µM] | oxidant-induced suppression of the viability of the cells (in words) (thymocytes) | Inhibition of Nitrite (J774) (nitric oxide (nitrite); [3]) |
| --- | --- | --- | --- | --- | --- | --- | --- | --- | --- | --- | --- | --- | --- | --- | --- |
| – | – | – | – | – | COC(=O)[C@@H](N)CCCNC(=N)N[N+](=O)[O-] [L-NAME, N^G-nitro-L-arginine methyl ester] | significantly reduced | – | – | – | – | – | – | – | – | – |
| – | – | – | – | – | CNC(=N)NCCC[C@H](N)C(=O)O [L-NMA, N^G-methyl-L-arginine] | significantly reduced | – | – | – | – | – | – | – | – | – |
| – | – | – | – | – | O=C(O)c1ccc(/C2=C3\C=CC(=N3)/C(c3ccc(C(=O)O)cc3)=c3/cc/c4[n]3[Mn]([Cl])[n]3c2ccc3/C(c2ccc(C(=O)O)cc2)=C2/C=CC(=N2)\C=4c2ccc(C(=O)O)cc2)cc1 [MnTBAP] | attenuated | – | – | – | – | – | – | – | – | – |
| 11.2 ± 1.1 | 15.2 ± 2.1 | 21.2 ± 2.7 | 25.4 ± 2.9 | inhibited | O=C(CN1CCCCC1)Nc1ccc2[nH]c(=O)c3ccccc3c2c1 [PJ36] | – | inhibited | inhibited | inhibited | inhibited | restored the viability | 20.2 ± 2.3 | 0.3 ± 0.1 | prevented | – |
| 6.2 ± 0.42 | 11.3 ± 1.4 | 14.9 ± 1.3 | 20.2 ± 1.5 | inhibited | O=C(CN1CCOCC1)Nc1ccc2[nH]c(=O)c3ccccc3c2c1 [PJ38] | – | inhibited | inhibited | inhibited | inhibited | restored the viability | 22.1 ± 2.7 | 0.4 ± 0.2 | prevented | – |
| 11.1 ± 0.67 | 10.2 ± 0.95 | 22.4 ± 1.2 | – | inhibited | CCN(CC)CC(=O)Nc1ccc2[nH]c(=O)c3ccccc3c2c1 [PJ44] | – | inhibited | inhibited | inhibited | inhibited | restored the viability | 16.2 ± 1.9 | 0.2 ± 0.1 | prevented | No effect |
| 9.2 ± 0.88 | > 30 | > 30 | > 30 | inhibited | CN1CCN(CC(=O)Nc2ccc3[nH]c(=O)c4ccccc4c3c2)CC1 [PJ46] | – | inhibited | inhibited | inhibited | inhibited | restored the viability | > 30 | 1.3 ± 0.3 | prevented | – |
| – | – | – | – | – | CC1(C)N([O])C(c2ccc(C(=O)O)cc2)=[N+]([O-])C1(C)C [carboxy-PTIO] | attenuated | – | – | – | – | – | – | – | – | – |

Source: patent US6531464B1, “Methods for the treatment of neurodegenerative disorders using substituted phenanthridinone derivatives” (Inotek Pharmaceutical Corporation, priority 1999, dated 2003)
